Assay results from PubChem BioAssay AID1918935 (Molecular Pharmacology Branch, DTP, NCI, 2023).

System: 324938-238-R-J1-PDC complex spheroid viability
Experiment: Anticancer human tumor 324938-238-R-J1-PDC patient-derived bladder carcinoma cell line growth inhibition
Conditions: for IC50: curve of first compound; for viability, T/C: stronger effect = lower value
Method in brief: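 Drug combinations with the LSD1 inhibitor iadademstat tested on tumor cells co-cultured as spheroids with endothelial cells and mesenchymal stem cells. Concentrations descended in half-log increments from clinical Cmax or 10 microM.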

[1] = second compound 0.1 µM, first compound 0.00316 µM
[2] = second compound 0.1 µM, first compound 0.01 µM
[3] = second compound 0.1 µM, first compound 0.0316 µM
[4] = second compound 0.1 µM, first compound 0.1 µM
[5] = second compound 0.316 µM, first compound 0.00316 µM
[6] = second compound 0.316 µM, first compound 0.01 µM
[7] = second compound 0.316 µM, first compound 0.0316 µM
[8] = second compound 0.316 µM, first compound 0.1 µM
[9] = second compound 1 µM, first compound 0.00316 µM
[10] = second compound 1 µM, first compound 0.01 µM
[11] = second compound 1 µM, first compound 0.0316 µM
[12] = second compound 1 µM, first compound 0.1 µM
[13] = second compound 3.16 µM, first compound 0.00316 µM
[14] = second compound 3.16 µM, first compound 0.01 µM
[15] = second compound 3.16 µM, first compound 0.0316 µM
[16] = second compound 3.16 µM, first compound 0.1 µM
[17] = second compound 10 µM, first compound 0.00316 µM
[18] = second compound 10 µM, first compound 0.01 µM
[19] = second compound 10 µM, first compound 0.0316 µM
[20] = second compound 10 µM, first compound 0.1 µM
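Further: spheroids also contain HUVEC and human MSCs and agents combined with iadademstat; spheroids exposed to agents for 7 days before readout.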

Row | Structure (SMILES) | IC50 (second compound 0.1 µM) | IC50 (second compound 0.316 µM) | IC50 (second compound 1 µM) | IC50 (second compound 3.16 µM) | IC50 (second compound 10 µM) | viability, T/C [1] | viability, T/C [2] | viability, T/C [3] | viability, T/C [4] | viability, T/C [5] | viability, T/C [6] | viability, T/C [7] | viability, T/C [8] | viability, T/C [9] | viability, T/C [10] | viability, T/C [11] | viability, T/C [12] | viability, T/C [13] | viability, T/C [14] | viability, T/C [15] | further results
1 | CC(C)CC(NC(=O)CNC(=O)c1cc(Cl)ccc1Cl)B1OC(=O)CC(CC(=O)O)(C(=O)O)O1 (stereo not given) + NC1CC1c1ccc(-c2cccc(O)c2)cc1 | 1.65 nM | 1.39 nM | 1.39 nM | 1.36 nM | 1.18 nM | 25.7% | 5.88% | 3.13% | 0.16% | 26.3% | 4.54% | 0.95% | 0.15% | 21.6% | 4.36% | 0.4% | 1.08% | 26.3% | 5.45% | 0.71% | viability, T/C (second compound 0.1 µM, first compound 0.000316 µM): 94.4%; viability, T/C (second compound 0.1 µM, first compound 0.001 µM): 68.7%; viability, T/C (second compound 0.316 µM, first compound 0.000316 µM): 73%; viability, T/C (second compound 0.316 µM, first compound 0.001 µM): 59.3%; viability, T/C (second compound 1 µM, first compound 0.000316 µM): 78.3%; viability, T/C (second compound 1 µM, first compound 0.001 µM): 61.5%; viability, T/C (second compound 3.16 µM, first compound 0.000316 µM): 77.5%; viability, T/C (second compound 3.16 µM, first compound 0.001 µM): 58.5%; viability, T/C [16]: 1.92%; viability, T/C (second compound 10 µM, first compound 0.000316 µM): 67.7%; viability, T/C (second compound 10 µM, first compound 0.001 µM): 54.7%; viability, T/C [17]: 20.6%; viability, T/C [18]: 2.92%; viability, T/C [19]: 0.54%; viability, T/C [20]: 0.22%
2 | CC1COCCN1c1cc(-c2ccnn2C)c2ccnc(-c3ccn[nH]3)c2n1 (stereo not given) + NC1CCC(NC2CC2c2ccccc2)CC1 | 26 nM | 40.4 nM | 36.3 nM | 25.8 nM | 21.6 nM | 88% | 64.2% | 49% | 31.5% | 76.9% | 80.9% | 52.5% | 31.2% | 80.8% | 73.2% | 51.8% | 31.2% | 72.8% | 59.6% | 49.7% | viability, T/C (second compound 0.1 µM, first compound 0.316 µM): 17.3%; viability, T/C (second compound 0.1 µM, first compound 1 µM): 13.4%; viability, T/C (second compound 0.316 µM, first compound 0.316 µM): 17.4%; viability, T/C (second compound 0.316 µM, first compound 1 µM): 15.2%; viability, T/C (second compound 1 µM, first compound 0.316 µM): 18.7%; viability, T/C (second compound 1 µM, first compound 1 µM): 14.8%; viability, T/C [16]: 31.8%; viability, T/C (second compound 3.16 µM, first compound 0.316 µM): 19.9%; viability, T/C (second compound 3.16 µM, first compound 1 µM): 15.5%; viability, T/C [17]: 72.3%; viability, T/C [18]: 60.3%; viability, T/C [19]: 44.7%; viability, T/C [20]: 30.8%; viability, T/C (second compound 10 µM, first compound 0.316 µM): 20.1%; viability, T/C (second compound 10 µM, first compound 1 µM): 14.3%
